The structures appear in SMILES notation.

The target in the experiment is Mitogen-activated protein kinase kinase kinase kinase 1 (Homo sapiens, UniProt Q92918). The experiment can be described thus: HPK-1 biochemical enzyme assay. As to the method: Compound inhibitory potency was measured in an HPK-1 kinase inhibition assay. Briefly, recombinant full length HPK-1 enzyme (6.8 nM) was incubated with 10 μM ATP and 12.5 μM swine myelin basic protein (MBP) for 30 mins. at 25° C. in the presence of various concentrations of test compound or vehicle in 40 mM Tris.Cl pH7.4 buffer containing 20 mM MgCl2, 50 μM DTT and 0.1 mg/mL BSA. Reactions were quenched and reaction mixtures were then analyzed by an ADP-Glo kit which measures the formed ADP. The percent inhibition was calculated from the substrate conversion considering no enzyme control reactions for 100% inhibition and vehicle only reactions for 0% inhibition. The compounds were dissolved in DMSO and evaluated at 10 concentrations to determine an IC50 value.
Chain of Mitogen-activated protein kinase kinase kinase kinase 1 (Q92918 whole entry): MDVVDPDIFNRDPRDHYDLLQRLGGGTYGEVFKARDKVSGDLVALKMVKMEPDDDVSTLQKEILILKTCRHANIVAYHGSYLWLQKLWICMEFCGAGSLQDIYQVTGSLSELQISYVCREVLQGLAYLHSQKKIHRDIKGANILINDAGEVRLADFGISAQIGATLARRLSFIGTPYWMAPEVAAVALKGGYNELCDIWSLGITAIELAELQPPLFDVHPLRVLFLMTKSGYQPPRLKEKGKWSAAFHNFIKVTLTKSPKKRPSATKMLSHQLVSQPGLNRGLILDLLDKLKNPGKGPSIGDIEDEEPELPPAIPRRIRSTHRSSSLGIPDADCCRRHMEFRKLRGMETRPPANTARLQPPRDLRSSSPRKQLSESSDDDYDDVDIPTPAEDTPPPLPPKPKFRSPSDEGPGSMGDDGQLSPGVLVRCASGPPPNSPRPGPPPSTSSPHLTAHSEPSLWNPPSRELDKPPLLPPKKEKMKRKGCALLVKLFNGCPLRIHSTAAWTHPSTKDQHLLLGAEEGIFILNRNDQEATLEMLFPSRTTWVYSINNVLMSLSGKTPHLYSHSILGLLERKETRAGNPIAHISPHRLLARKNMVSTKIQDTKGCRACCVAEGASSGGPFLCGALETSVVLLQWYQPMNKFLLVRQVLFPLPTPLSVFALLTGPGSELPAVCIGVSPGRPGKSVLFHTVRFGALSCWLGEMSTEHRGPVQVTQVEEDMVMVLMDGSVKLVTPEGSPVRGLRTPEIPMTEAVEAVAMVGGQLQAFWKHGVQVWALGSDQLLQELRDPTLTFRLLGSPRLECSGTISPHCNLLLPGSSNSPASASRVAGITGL
`COCCN1CCN(c2ccc(NC(=O)c3c(Nc4cnc5c(c4C)NCCO5)cc[nH]c3=O)cc2F)CC1` [US20250282794, Example 194]: the IC50 (as a rule, the midpoint of a concentration-inhibition curve) was less than 10 nM. The value for `COCCN1CCN(c2ccc(NC(=O)c3c(Nc4cnc5c(c4C)NCCO5)cc[nH]c3=O)cc2C)CC1` [US20250282794, Example 275] was less than 10 nM. With `COCCCN1CCN(c2ccc(NC(=O)c3c(Nc4cnc5c(c4C)NCCO5)cc[nH]c3=O)cc2)CC1` [US20250282794, Example 277], the IC50 is less than 10 nM.

On to `Cc1c(Nc2cc[nH]c(=O)c2C(=O)Nc2ccc(N3CCC(O)CC3)cc2)cnc2c1NCCO2` [US20250282794, Example 278], for which the IC50 was less than 10 nM. In the case of `Cc1c(Nc2cc[nH]c(=O)c2C(=O)Nc2ccc(C3CCN(C(C)C)CC3)cc2)cnc2c1NCCO2` [US20250282794, Example 279], the IC50 is less than 10 nM.

On to `Cc1c(Nc2cc[nH]c(=O)c2C(=O)Nc2ccc(N3CCN(c4ccccn4)CC3)cc2)cnc2c1NCCO2` [US20250282794, Example 289], for which the IC50 was less than 10 nM. In turn, `Cc1c(Nc2cc[nH]c(=O)c2C(=O)Nc2ccc(N3CCN(C4CCCC4)CC3)c(N)c2)cnc2c1NCCO2` [US20250282794, Example 311] displayed an IC50 of less than 10 nM. In turn, `Cc1c(Nc2cc[nH]c(=O)c2C(=O)Nc2ccc(N3CCN(C(=O)C4CCC4)CC3)cc2)cnc2c1NCCO2` [US20250282794, Example 314] had a concentration for half-maximal inhibition (IC50) of less than 10 nM. The compound `Cc1c(Nc2cc[nH]c(=O)c2C(=O)Nc2ccc(-c3ccccc3)cc2)cnc2c1NCCO2` [US20250282794, Example 331] came in with a concentration for half-maximal inhibition (IC50) of 10 to 100 nM. As for `Cc1c(Nc2cc[nH]c(=O)c2C(=O)Nc2ccc(N3CCC(O)(CN(C)C)CC3)c(F)c2)cnc2c1NCC(C)O2` (stereo unspecified) [US20250282794, Example 388], the IC50 was less than 10 nM. In turn, `Cc1c(Nc2cc[nH]c(=O)c2C(=O)Nc2ccc(N3CCN(C)CC3)c(CN)c2)cnc2c1NCCO2` [US20250282794, Example 393] returned an IC50 of less than 10 nM.
